Assay results taken from patent publication US20220142995A1, “DUAL ATM AND DNA-PK INHIBITORS FOR USE IN ANTI-TUMOR THERAPY” (XRAD Therapeutics, Inc., priority 2019, published 2022).

Assays:
[1] = system: pDNA-PK/DNA-PK in FADU tumors; assay: Pharmacodynamic assay, pDNA-PK/DNA-PK in FADU tumors; format: in vivo, mice; details: for pDNA-PK/DNA-PK: FADU tumors
Source text: (§1) Tumor Studies. Female NCr nu/nu mice (Crl:NU(NCr)-Foxn1 nu, Strain 490) were obtained from Charles River at 5-6 weeks of age. All animal procedures used in these studies were approved by the Institutional Animal Care and Use Committee (IACUC) at Duke University.
(§2) FADU or MDA-MB-231 cells were harvested during log phase growth for in vivo implantation. The resuspended cells were washed three times in phosphate buffered saline (PBS) before preparing the working dilution in PBS. FADU cells were diluted to 1×10^7 cells/mL and MDA-MB-231 cells were diluted to 5×10^7 cells/mL. Each mouse was injected subcutaneously in the right flank with 100 μL of the cellular suspension. Tumor growth was monitored until the tumors reached a target volume of at least 100 mm^3, at which point mice were randomly stratified into four treatment groups.
(§3) The vehicle used in this study was 0.5% (Hydroxypropyl)methyl cellulose (HPMC) and 0.2% Tween80 dissolved in deionized water. The pH of the vehicle was adjusted to 7.0-8.0 and the vehicle was stored at 4° C. On each day of in vivo treatment an appropriate mass of test compound was added to the vehicle at room temperature. The mixture was vortexed as necessary to generate a final concentration of 1.6 mg/mL.
(§4) Pharmacodynamic (PD) assays. Tumor studies were performed as follows. Mice bearing FADU or MDA-231 tumors were pre-dosed with vehicle alone or compound 569 alone at 3, 6, and 10 mg/kg. Tumors were then irradiated with 10 Gy 45 min after vehicle or compound 569 administration or left unirradiated (vehicle and compound 569 at 10 mg/kg). Tumors were harvested 1 h post radiation.
(§5) Tissue homogenates for pharmacodynamic analyses were collected and processed as follows. Tumor tissues from FADU or MDA-MB-231 tumors were flash frozen in liquid nitrogen and pulverized on dry ice using a tissue pulverizer. A portion of the tumor powder was transferred into a microtube, followed by addition of 500 μL of RIPA buffer [[…], pH 8.0, 150 mM NaCl, 0.1% SDS, 0.5% sodium deoxycholate, 1% IGEPAL® CA-630 (Sigma, 18896)]. To 10 ml of RIPA buffer, 2 tablets each of Protease inhibitor and Phosphatase inhibitor (Roche, #04693159001 & #04906837001), 200 μL of 0.1 M PMSF and 160 μL of Aprotinin, (Sigma, A6279) were added. The suspension was homogenized on ice with a pellet pestle motor (KONTES) and incubated on ice for 30 minutes. Cell lysates were centrifuged at 13,200 rpm for 15 min at 4° C. and supernatants were transferred to a new tube and analyzed for protein concentration with a BCA kit (Pierce, 23227), followed by immunoblotting.

[2] = system: FADU subcutaneous human xenograft; assay: In vivo tumor growth delay study, FADU subcutaneous human xenograft mouse model
Source text: as §1, §2
(§6) Following implantation of the tumor cell lines, mice were monitored once weekly for tumor development. Upon detection, tumors were measured in two dimensions using digital calipers. Tumors were treated after reaching at least 100 mm^3 and were measured two to three times weekly following enrollment in one of the treatment groups. The study endpoint was defined as tumor quintupling from the volume at time of treatment.
The vehicle used in this study was 0.5% (Hydroxypropyl)methyl cellulose (HPMC) and 0.2% Tween80 dissolved in deionized water. The pH of the vehicle was adjusted to 7.0-8.0 and the vehicle was stored at 4° C. […]
In vivo tumor growth delay study was performed as follows. Following implantation of the tumor cell lines, mice were monitored once weekly for tumor development. […]
(§7) Statistical and Graphical Analysis of the in vivo data. […] In order to adjust for the differing tumor sizes at the start of treatment, the relative tumor volume was calculated by dividing the tumor volume at each time point by the volume at baseline. […] When an animal exited the study due to tumor quintupling, the final tumor volume recorded for the animal was included with the data used to calculate the median volume at subsequent time points. […]

[3] = system: MDA-MB-231 subcutaneous human xenograft; assay: In vivo tumor growth delay study, MDA-MB-231 subcutaneous human xenograft mouse model
Source text: as §1, §2, §6, §3
In vivo tumor growth delay study was performed as follows. Following implantation of the tumor cell lines, mice were monitored once weekly for tumor development. Upon development of a tumor measuring at least 100 mm^3, tumor-bearing mice were stratified to one of 4 groups, utilizing 5 mice per group. Tumor volumes were between 100 and 500 mm^3. Vehicle or compound 569 (10 mg/kg) were administered by oral gavage once daily for three consecutive days (qd×3), alone or in combination with focal radiation. The delivered volume of vehicle or compound 569 was adjusted based on body weight of the individual animals. […]
as §7

[4] = system: pKAP1/KAP1 in MDA-231 tumors; assay: Pharmacodynamic assay, pKAP1/KAP1 in MDA-231 tumors; format: in vivo, mice
Source text: as §1, §2, §3, §4, §5

[5] = 10 Gy, 3 mg/kg oral, harvested 1 h post radiation
[6] = 10 Gy, 6 mg/kg oral, harvested 1 h post radiation
[7] = 10 Gy, 10 mg/kg oral, harvested 1 h post radiation

For CC(C)NCCOc1ncc(-c2cc3c4c(cnc3cc2F)N(C)C(=O)C42CCC2)cc1NS(C)(=O)=O [Compound 569, N-(5-(7′-Fluoro-3′-methyl-2′-oxo-2′,3′-dihydrospiro[cyclobutane-1,1′-pyrrolo[2,3-c]quinolin]-8′-yl)-2-(2-(isopropylamino)ethoxy)pyridin-3-yl)methanesulfonamide], the “inhibition of radiation-induced DNA-PK autophosphorylation and KAP1 phosphorylation in tumors” value ([1]; FADU and MDA231 tumors, 10 Gy, 3, 6 and 10 mg/kg oral) was “dose-dependent inhibition”, the pDNA-PK/DNA-PK [1, 5] was 0.938 and the pDNA-PK/DNA-PK [1, 6] was 0.658. The pDNA-PK/DNA-PK [1, 7] was 0.476, the pDNA-PK/DNA-PK ([1]; no radiation, 10 mg/kg oral) was 0.343 and the inhibition at 10 mg/kg ([1]; Mus musculus, FADU and MDA231 tumors (FIGS. 4 and 5, Tables 2-5), 10 Gy, 10 mg/kg, read-out: inhibition of tumor levels of radiation-induced autophosphorylation of DNA-PK) was ~55%. The “basal phosphorylation of DNA-PK in tumors” value ([1]; unirradiated tumors, 10 mg/kg) was “inhibited”, the “tumor growth curves and quintupling-free survival” value ([2]; FADU, Group 2 (10 mg/kg qd×3 alone) versus Group 1 (vehicle)) was “nearly identical to those for Group 1” and the “overall survival compared to Group 1, Group 2 and Group 3” value ([2]; FADU, Group 4: 10 mg/kg + 3 Gy qd×3, P<0.01, logrank) was “significantly improved”. The tolerability ([2]; FADU-bearing mice, 10 mg/kg qd×3 alone or with 3 Gy) was “well-tolerated”, the “tumor growth curves and quintupling-free survival” value ([3]; MDA-MB-231, Group 2 (10 mg/kg qd×3 alone) versus Group 1 (vehicle)) was “nearly identical to those for Group 1” and the “overall survival compared to Group 1, Group 2 and Group 3” value ([3]; MDA-MB-231, Group 4: 10 mg/kg + 3 Gy qd×3, P<0.01, logrank) was “significantly improved”. For the same compound, the animals found dead ([3]; MDA-MB-231, Group 4: 10 mg/kg + 3 Gy qd×3, unknown causes) was “One animal was found dead on Day 35”, the tolerability ([3]; MDA-MB-231-bearing mice, 10 mg/kg qd×3 alone or with 3 Gy) was “well-tolerated” and the pKAP1/KAP1 [4, 5] was 0.327. The pKAP1/KAP1 [4, 6] was 0.0130, the pKAP1/KAP1 [4, 7] was 0.00901 and the pKAP1/KAP1 ([4]; no radiation, 10 mg/kg oral) was −0.00319.
